Measurements: ChEMBL document CHEMBL5537158, “Polymyxins with Potent Antibacterial Activity against Colistin-Resistant Pathogens: Fine-Tuning Hydrophobicity with Unnatural Amino Acids” (J Med Chem, 2024)
Positions of bridges follow the written chain, without caps; N, C: chain ends. Non-standard residues stand in square brackets, D forms with d. Residues, ends and D or L forms follow the SMILES beside them. *: point of attachment. Phe(3,4,5-F3) = N[C@@H](Cc1cc(F)c(F)c(F)c1)C(=O)O; dPhe(3,4,5-F3) = N[C@H](Cc1cc(F)c(F)c(F)c1)C(=O)O; Phe(4-CF3) = N[C@@H](Cc1ccc(C(F)(F)F)cc1)C(=O)O; dPhe(4-CF3) = N[C@H](Cc1ccc(C(F)(F)F)cc1)C(=O)O; Phe(4-Br) = N[C@@H](Cc1ccc(Br)cc1)C(=O)O; Phe(4-Cl) = N[C@@H](Cc1ccc(Cl)cc1)C(=O)O; dPhe(4-Cl) = N[C@H](Cc1ccc(Cl)cc1)C(=O)O; Phe(3-F) = N[C@@H](Cc1cccc(F)c1)C(=O)O; Phe(4-F) = N[C@@H](Cc1ccc(F)cc1)C(=O)O; dPhe(3-F) = N[C@H](Cc1cccc(F)c1)C(=O)O; Phe(2-F) = N[C@@H](Cc1ccccc1F)C(=O)O; dPhe(2-F) = N[C@H](Cc1ccccc1F)C(=O)O; Gly(octyl) = CCCCCCCC[C@H](N)C(=O)O; hhPhe = N[C@@H](CCCc1ccccc1)C(=O)O; hPhe = N[C@@H](CCc1ccccc1)C(=O)O; hLeu = CC(C)CC[C@H](N)C(=O)O; Octanoyl = CCCCCCCC(=O)*; Dab = NCC[C@H](N)C(=O)O

Experiment: Hemolytic activity in human RBC at 400 ug/ml after 1 hr
Format: toxicity, cell-based, Erythrocyte
Details: red blood cells (erythrocytes), at 400 µg/mL, read-out: Activity

| Compound | hemolysis at 1 h, 400 ug/ml [%] |
| --- | --- |
| CCCCCCCC[C@@H]1NC(=O)[C@@H](Cc2ccccc2)NC(=O)[C@H](CCN)NC(=O)[C@@H](NC(=O)[C@H](CCN)NC(=O)[C@@H](NC(=O)[C@H](CCN)NC(=O)CCCCCCC)[C@@H](C)O)CCNC(=O)[C@H]([C@@H](C)O)NC(=O)[C@H](CCN)NC(=O)[C@H](CCN)NC1=O (Octanoyl-[Dab]T[Dab][Dab][Dab][dF][Gly(octyl)][Dab][Dab]T; lactam 4-C) | < 10 |
| CCCCCCCC(=O)N[C@@H](CCN)C(=O)N[C@H](C(=O)N[C@@H](CCN)C(=O)N[C@H]1CCNC(=O)[C@H]([C@@H](C)O)NC(=O)[C@H](CCN)NC(=O)[C@H](CCN)NC(=O)[C@H](CCC(C)C)NC(=O)[C@@H](Cc2ccccc2)NC(=O)[C@H](CCN)NC1=O)[C@@H](C)O (Octanoyl-[Dab]T[Dab][Dab][Dab][dF][hLeu][Dab][Dab]T; lactam 4-C) | < 10 |
| CCCCCCCC(=O)N[C@@H](CCN)C(=O)N[C@H](C(=O)N[C@@H](CCN)C(=O)N[C@H]1CCNC(=O)[C@H]([C@@H](C)O)NC(=O)[C@H](CCN)NC(=O)[C@H](CCN)NC(=O)[C@H](Cc2ccccc2F)NC(=O)[C@@H](CC(C)C)NC(=O)[C@H](CCN)NC1=O)[C@@H](C)O (Octanoyl-[Dab]T[Dab][Dab][Dab][dL][Phe(2-F)][Dab][Dab]T; lactam 4-C) | < 10 |
| CCCCCCCC(=O)N[C@@H](CCN)C(=O)N[C@H](C(=O)N[C@@H](CCN)C(=O)N[C@H]1CCNC(=O)[C@H]([C@@H](C)O)NC(=O)[C@H](CCN)NC(=O)[C@H](CCN)NC(=O)[C@H](Cc2cc(F)c(F)c(F)c2)NC(=O)[C@@H](CC(C)C)NC(=O)[C@H](CCN)NC1=O)[C@@H](C)O (Octanoyl-[Dab]T[Dab][Dab][Dab][dL][Phe(3,4,5-F3)][Dab][Dab]T; lactam 4-C) | < 10 |
| CCCCCCCC(=O)N[C@@H](CCN)C(=O)N[C@H](C(=O)N[C@@H](CCN)C(=O)N[C@H]1CCNC(=O)[C@H]([C@@H](C)O)NC(=O)[C@H](CCN)NC(=O)[C@H](CCN)NC(=O)[C@H](Cc2cccc(F)c2)NC(=O)[C@@H](CC(C)C)NC(=O)[C@H](CCN)NC1=O)[C@@H](C)O (Octanoyl-[Dab]T[Dab][Dab][Dab][dL][Phe(3-F)][Dab][Dab]T; lactam 4-C) | < 10 |
| CCCCCCCC(=O)N[C@@H](CCN)C(=O)N[C@H](C(=O)N[C@@H](CCN)C(=O)N[C@H]1CCNC(=O)[C@H]([C@@H](C)O)NC(=O)[C@H](CCN)NC(=O)[C@H](CCN)NC(=O)[C@H](Cc2ccc(Br)cc2)NC(=O)[C@@H](CC(C)C)NC(=O)[C@H](CCN)NC1=O)[C@@H](C)O (Octanoyl-[Dab]T[Dab][Dab][Dab][dL][Phe(4-Br)][Dab][Dab]T; lactam 4-C) | < 10 |
| CCCCCCCC(=O)N[C@@H](CCN)C(=O)N[C@H](C(=O)N[C@@H](CCN)C(=O)N[C@H]1CCNC(=O)[C@H]([C@@H](C)O)NC(=O)[C@H](CCN)NC(=O)[C@H](CCN)NC(=O)[C@H](Cc2ccc(C(F)(F)F)cc2)NC(=O)[C@@H](CC(C)C)NC(=O)[C@H](CCN)NC1=O)[C@@H](C)O (Octanoyl-[Dab]T[Dab][Dab][Dab][dL][Phe(4-CF3)][Dab][Dab]T; lactam 4-C) | < 10 |
| CCCCCCCC(=O)N[C@@H](CCN)C(=O)N[C@H](C(=O)N[C@@H](CCN)C(=O)N[C@H]1CCNC(=O)[C@H]([C@@H](C)O)NC(=O)[C@H](CCN)NC(=O)[C@H](CCN)NC(=O)[C@H](Cc2ccc(Cl)cc2)NC(=O)[C@@H](CC(C)C)NC(=O)[C@H](CCN)NC1=O)[C@@H](C)O (Octanoyl-[Dab]T[Dab][Dab][Dab][dL][Phe(4-Cl)][Dab][Dab]T; lactam 4-C) | < 10 |
| CCCCCCCC(=O)N[C@@H](CCN)C(=O)N[C@H](C(=O)N[C@@H](CCN)C(=O)N[C@H]1CCNC(=O)[C@H]([C@@H](C)O)NC(=O)[C@H](CCN)NC(=O)[C@H](CCN)NC(=O)[C@H](Cc2ccc(F)cc2)NC(=O)[C@@H](CC(C)C)NC(=O)[C@H](CCN)NC1=O)[C@@H](C)O (Octanoyl-[Dab]T[Dab][Dab][Dab][dL][Phe(4-F)][Dab][Dab]T; lactam 4-C) | < 10 |
| CCCCCCCC(=O)N[C@@H](CCN)C(=O)N[C@H](C(=O)N[C@@H](CCN)C(=O)N[C@H]1CCNC(=O)[C@H]([C@@H](C)O)NC(=O)[C@H](CCN)NC(=O)[C@H](CCN)NC(=O)[C@H](CCc2ccccc2)NC(=O)[C@@H](CC(C)C)NC(=O)[C@H](CCN)NC1=O)[C@@H](C)O (Octanoyl-[Dab]T[Dab][Dab][Dab][dL][hPhe][Dab][Dab]T; lactam 4-C) | < 10 |
| CCCCCCCC(=O)N[C@@H](CCN)C(=O)N[C@H](C(=O)N[C@@H](CCN)C(=O)N[C@H]1CCNC(=O)[C@H]([C@@H](C)O)NC(=O)[C@H](CCN)NC(=O)[C@H](CCN)NC(=O)[C@H](CCCc2ccccc2)NC(=O)[C@@H](CC(C)C)NC(=O)[C@H](CCN)NC1=O)[C@@H](C)O (Octanoyl-[Dab]T[Dab][Dab][Dab][dL][hhPhe][Dab][Dab]T; lactam 4-C) | < 10 |
| CCCCCCCC(=O)N[C@@H](CCN)C(=O)N[C@H](C(=O)N[C@@H](CCN)C(=O)N[C@H]1CCNC(=O)[C@H]([C@@H](C)O)NC(=O)[C@H](CCN)NC(=O)[C@H](CCN)NC(=O)[C@H](CC(C)C)NC(=O)[C@@H](Cc2ccccc2F)NC(=O)[C@H](CCN)NC1=O)[C@@H](C)O (Octanoyl-[Dab]T[Dab][Dab][Dab][dPhe(2-F)]L[Dab][Dab]T; lactam 4-C) | < 10 |
| CCCCCCCC(=O)N[C@@H](CCN)C(=O)N[C@H](C(=O)N[C@@H](CCN)C(=O)N[C@H]1CCNC(=O)[C@H]([C@@H](C)O)NC(=O)[C@H](CCN)NC(=O)[C@H](CCN)NC(=O)[C@H](CC(C)C)NC(=O)[C@@H](Cc2cc(F)c(F)c(F)c2)NC(=O)[C@H](CCN)NC1=O)[C@@H](C)O (Octanoyl-[Dab]T[Dab][Dab][Dab][dPhe(3,4,5-F3)]L[Dab][Dab]T; lactam 4-C) | < 10 |
| CCCCCCCC(=O)N[C@@H](CCN)C(=O)N[C@H](C(=O)N[C@@H](CCN)C(=O)N[C@H]1CCNC(=O)[C@H]([C@@H](C)O)NC(=O)[C@H](CCN)NC(=O)[C@H](CCN)NC(=O)[C@H](CC(C)C)NC(=O)[C@@H](Cc2cccc(F)c2)NC(=O)[C@H](CCN)NC1=O)[C@@H](C)O (Octanoyl-[Dab]T[Dab][Dab][Dab][dPhe(3-F)]L[Dab][Dab]T; lactam 4-C) | < 10 |
| CCCCCCCC(=O)N[C@@H](CCN)C(=O)N[C@H](C(=O)N[C@@H](CCN)C(=O)N[C@H]1CCNC(=O)[C@H]([C@@H](C)O)NC(=O)[C@H](CCN)NC(=O)[C@H](CCN)NC(=O)[C@H](CC(C)C)NC(=O)[C@@H](Cc2ccc(C(F)(F)F)cc2)NC(=O)[C@H](CCN)NC1=O)[C@@H](C)O (Octanoyl-[Dab]T[Dab][Dab][Dab][dPhe(4-CF3)]L[Dab][Dab]T; lactam 4-C) | < 10 |
| CCCCCCCC(=O)N[C@@H](CCN)C(=O)N[C@H](C(=O)N[C@@H](CCN)C(=O)N[C@H]1CCNC(=O)[C@H]([C@@H](C)O)NC(=O)[C@H](CCN)NC(=O)[C@H](CCN)NC(=O)[C@H](CC(C)C)NC(=O)[C@@H](Cc2ccc(Cl)cc2)NC(=O)[C@H](CCN)NC1=O)[C@@H](C)O (Octanoyl-[Dab]T[Dab][Dab][Dab][dPhe(4-Cl)]L[Dab][Dab]T; lactam 4-C) | < 10 |
